Assay results from the NIST ThermoML archive (doi:10.1016/j.fluid.2018.01.030).
± gives the expanded uncertainty stated by the source.

Key:
[1] = 101.33 kPa, Liquid; for viscosity: Capillary tube (Ostwald / Ubbelohde) method; for mass density: Pycnometric method
[2] = wn = mass fraction of the nth substance listed; settings: for viscosity / mass density: 101 kPa, Liquid; for viscosity: Capillary tube (Ostwald / Ubbelohde) method; for mass density: Pycnometric method; for surface tension liquid-gas: Pendant drop shape

`NCCN1CCNCC1` [N-(β-aminoethyl)piperazine)] showed a viscosity ([1]; 303.2 K) of 14.18 ± 0.17 mPa·s, a mass density ([1]; 303.2 K) of 981.129 ± 1 kg/m3 and a viscosity ([1]; 313.2 K) of 8.669 ± 0.14 mPa·s. For the same molecule, the mass density ([1]; 313.2 K) was 977.356 ± 1 kg/m3, the viscosity ([1]; 323.2 K) was 5.626 ± 0.11 mPa·s and the mass density ([1]; 323.2 K) was 973.989 ± 1 kg/m3. It also gave a viscosity ([1]; 333.2 K) of 4.481 ± 0.097 mPa·s, a mass density ([1]; 333.2 K) of 969.461 ± 1.1 kg/m3 and a viscosity ([1]; 343.2 K) of 3.697 ± 0.095 mPa·s. For the same molecule, the mass density ([1]; 343.2 K) was 965.122 ± 1.1 kg/m3.
In the case of `CN(CCO)CCO` [N-methyldiethanolamine] + O, the viscosity ([2]; 303.2 K, w1 = 0.1) is reported as 1.164 ± 0.061 mPa·s, the viscosity ([2]; 303.2 K, w1 = 0.2) is reported as 1.635 ± 0.063 mPa·s and the viscosity ([2]; 303.2 K, w1 = 0.3) is reported as 2.634 ± 0.066 mPa·s. It also gave a mass density ([2]; 303.2 K, w1 = 0.1) of 1003.8 ± 1 kg/m3, a mass density ([2]; 303.2 K, w1 = 0.2) of 1012.4 ± 1 kg/m3 and a mass density ([2]; 303.2 K, w1 = 0.3) of 1024.5 ± 1 kg/m3. The viscosity ([2]; 313.2 K, w1 = 0.1) was 0.912 ± 0.061 mPa·s, the viscosity ([2]; 313.2 K, w1 = 0.2) was 1.314 ± 0.062 mPa·s and the viscosity ([2]; 313.2 K, w1 = 0.3) was 1.946 ± 0.064 mPa·s. For the same molecule, the mass density ([2]; 313.2 K, w1 = 0.1) was 999.5 ± 1 kg/m3, the mass density ([2]; 313.2 K, w1 = 0.2) was 1008.4 ± 1 kg/m3 and the mass density ([2]; 313.2 K, w1 = 0.3) was 1019.5 ± 1 kg/m3. It also gave a viscosity ([2]; 323.2 K, w1 = 0.1) of 0.752 ± 0.061 mPa·s, a viscosity ([2]; 323.2 K, w1 = 0.2) of 1.06 ± 0.06 mPa·s and a viscosity ([2]; 323.2 K, w1 = 0.3) of 1.517 ± 0.062 mPa·s. The mass density ([2]; 323.2 K, w1 = 0.1) was 995.2 ± 1 kg/m3, the mass density ([2]; 323.2 K, w1 = 0.2) was 1003.5 ± 1 kg/m3 and the mass density ([2]; 323.2 K, w1 = 0.3) was 1015.2 ± 1 kg/m3. The viscosity ([2]; 333.2 K, w1 = 0.1) was 0.635 ± 0.06 mPa·s, the viscosity ([2]; 333.2 K, w1 = 0.2) was 0.867 ± 0.061 mPa·s and the viscosity ([2]; 333.2 K, w1 = 0.3) was 1.219 ± 0.061 mPa·s. For the same molecule, the mass density ([2]; 333.2 K, w1 = 0.1) was 990.5 ± 1 kg/m3, the mass density ([2]; 333.2 K, w1 = 0.2) was 998.6 ± 1 kg/m3 and the mass density ([2]; 333.2 K, w1 = 0.3) was 1008.2 ± 1 kg/m3.
Work on `OCCNCCO` [diethanolamine] + O yielded a surface tension liquid-gas ([2]; 313.2 K, w1 = 0.1) of 60.42 ± 0.83 mN/m, a surface tension liquid-gas ([2]; 313.2 K, w1 = 0.2) of 63.07 ± 0.84 mN/m and a surface tension liquid-gas ([2]; 313.2 K, w1 = 0.3) of 61.57 ± 0.84 mN/m. It also gave a surface tension liquid-gas ([2]; 323.2 K, w1 = 0.1) of 59.18 ± 0.83 mN/m, a surface tension liquid-gas ([2]; 323.2 K, w1 = 0.2) of 62.23 ± 0.84 mN/m and a surface tension liquid-gas ([2]; 323.2 K, w1 = 0.3) of 60.13 ± 0.84 mN/m. For the same molecule, the surface tension liquid-gas ([2]; 333.2 K, w1 = 0.1) was 58.85 ± 0.82 mN/m, the surface tension liquid-gas ([2]; 333.2 K, w1 = 0.2) was 60.56 ± 0.84 mN/m and the surface tension liquid-gas ([2]; 333.2 K, w1 = 0.3) was 58.43 ± 0.83 mN/m.
